Experimental data from ChEMBL document CHEMBL4308841, “Synthesis, in vitro antiproliferative activity, and kinase inhibitory effects of pyrazole-containing diarylureas and diarylamides” (Eur J Med Chem, 2018).

Tests used:
HL-60(TB) = test: Growth inhibition of human HL-60(TB) cells assessed as cell growth at 1 uM incubated for 48 hrs by sulforhodamine B assay relative to control; format: functional; conditions: HL-60, 48 h, read-out: Activity
NCI-H23 = test: Growth inhibition of human NCI-H23 cells assessed as cell growth at 0.01 uM incubated for 48 hrs by sulforhodamine B assay relative to control; format: functional; conditions: NCI-H23, 48 h, read-out: Activity
SNB-19 = test: Growth inhibition of human SNB19 cells incubated for 48 hrs by sulforhodamine B assay; format: functional, cell-based; conditions: SNB-19, 48 h
A549 = test: Growth inhibition of human A549/ATCC cells assessed as cell growth at 0.1 uM incubated for 48 hrs by sulforhodamine B assay relative to control; format: functional; conditions: A549, 48 h, read-out: Activity
HT-29 [1] = test: Growth inhibition of human HT-29 cells assessed as cell growth at 0.1 uM incubated for 48 hrs by sulforhodamine B assay relative to control; format: functional; conditions: HT-29, 48 h, read-out: Activity
HCT-15 = test: Growth inhibition of human HCT15 cells assessed as cell growth at 1 uM incubated for 48 hrs by sulforhodamine B assay relative to control; format: functional; conditions: HCT-15, 48 h, read-out: Activity
SK-MEL-5 = test: Growth inhibition of human SK-MEL-5 cells incubated for 48 hrs by sulforhodamine B assay; format: functional, cell-based; conditions: SK-MEL-5, 48 h
ACHN [2] = test: Growth inhibition of human ACHN cells assessed as cell growth at 0.1 uM incubated for 48 hrs by sulforhodamine B assay relative to control; format: functional; conditions: read-out: Activity
T47D = test: Growth inhibition of human T47D cells assessed as cell growth at 0.01 uM incubated for 48 hrs by sulforhodamine B assay relative to control; format: functional; conditions: read-out: Activity
ACHN [3] = test: Growth inhibition of human ACHN cells assessed as cell growth at 0.01 uM incubated for 48 hrs by sulforhodamine B assay relative to control; format: functional; conditions: read-out: Activity
K562 = test: Growth inhibition of human K562 cells assessed as cell growth at 100 uM incubated for 48 hrs by sulforhodamine B assay relative to control; format: functional; conditions: K562, 48 h, read-out: Activity
UACC-257 = test: Growth inhibition of human UACC257 cells assessed as cell growth at 100 uM incubated for 48 hrs by sulforhodamine B assay relative to control; format: functional; conditions: UACC-257, 48 h, read-out: Activity
OVCAR-8 = test: Growth inhibition of human OVCAR8 cells assessed as cell growth at 0.01 uM incubated for 48 hrs by sulforhodamine B assay relative to control; format: functional; conditions: OVCAR-8, 48 h, read-out: Activity
NCI-H522 = test: Growth inhibition of human NCI-H522 cells assessed as cell growth at 0.1 uM incubated for 48 hrs by sulforhodamine B assay relative to control; format: functional; conditions: NCI-H522, 48 h, read-out: Activity
MDA-MB-231 = test: Growth inhibition of human MDA-MB-231 cells assessed as cell growth at 0.1 uM incubated for 48 hrs by sulforhodamine B assay relative to control; format: functional; conditions: MDA-MB-231, 48 h, read-out: Activity
NCI-H460 = test: Growth inhibition of human NCI-H460 cells assessed as cell growth at 0.01 uM incubated for 48 hrs by sulforhodamine B assay relative to control; format: functional; conditions: NCI-H460, 48 h, read-out: Activity
HT-29 [4] = test: Growth inhibition of human HT-29 cells incubated for 48 hrs by sulforhodamine B assay; format: functional, cell-based; conditions: HT-29, 48 h
CCRF-CEM = test: Growth inhibition of human CCRF-CEM cells incubated for 48 hrs by sulforhodamine B assay; format: functional, cell-based
SK-OV-3 = test: Growth inhibition of human SKOV3 cells incubated for 48 hrs by sulforhodamine B assay; format: functional, cell-based; conditions: SK-OV-3, 48 h
COLO 205 = test: Growth inhibition of human COLO205 cells incubated for 48 hrs by sulforhodamine B assay; format: functional, cell-based; conditions: COLO 205, 48 h
Malme-3M = test: Growth inhibition of human MALME-3M cells assessed as cell growth at 100 uM incubated for 48 hrs by sulforhodamine B assay relative to control; format: functional; conditions: read-out: Activity
SF-295 = test: Growth inhibition of human SF295 cells assessed as cell growth at 1 uM incubated for 48 hrs by sulforhodamine B assay relative to control; format: functional; conditions: SF-295, 48 h, read-out: Activity
SW-620 = test: Growth inhibition of human SW620 cells assessed as cell growth at 100 uM incubated for 48 hrs by sulforhodamine B assay relative to control; format: functional; conditions: SW-620, 48 h, read-out: Activity
MOLT-4 = test: Growth inhibition of human MOLT4 cells assessed as cell growth at 0.01 uM incubated for 48 hrs by sulforhodamine B assay relative to control; format: functional; conditions: MOLT-4, 48 h, read-out: Activity
ACHN [5] = test: Growth inhibition of human ACHN cells incubated for 48 hrs by sulforhodamine B assay; format: functional, cell-based
DU-145 = test: Growth inhibition of human DU145 cells assessed as cell growth at 1 uM incubated for 48 hrs by sulforhodamine B assay relative to control; format: functional; conditions: DU-145, 48 h, read-out: Activity
HOP-62 = test: Growth inhibition of human HOP62 cells assessed as cell growth at 0.1 uM incubated for 48 hrs by sulforhodamine B assay relative to control; format: functional; conditions: HOP-62, 48 h, read-out: Activity
KM12 = test: Growth inhibition of human KM12 cells incubated for 48 hrs by sulforhodamine B assay; format: functional, cell-based; conditions: KM12, 48 h
[6] = read-out: LC50 (the source's name)
[7] = read-out: pLC50 (the source's name) (converted)

## COc1cc(Cl)cc(-c2nn(-c3cccc(NC(=O)Nc4ccc(Cl)c(Cl)c4)c3)cc2-c2ccncc2)c1
HL-60(TB)
  growth at 1 µM: 91%
NCI-H23
  growth at 0.01 µM: 93%
SNB-19; read-out: GI50
  GI50: 3.51 µM
SNB-19; [6]
  CC50: > 100 µM
SNB-19; read-out: TGI
  TGI: > 100 µM
SNB-19; read-out: pGI50 (converted)
  GI50: 3.55 µM
SNB-19; [7]
  CC50: > 100 µM
SNB-19; read-out: pTGI (converted)
  TGI: > 100 µM
A549
  growth at 0.1 µM: 97%
HT-29 [1]
  growth at 0.1 µM: 91%
HCT-15
  growth at 1 µM: 77%
SK-MEL-5; read-out: GI50
  GI50: 1520 nM
SK-MEL-5; [6]
  CC50: 6.23 µM
SK-MEL-5; read-out: TGI
  TGI: 31.7 µM
SK-MEL-5; read-out: pGI50 (converted)
  GI50: 1620 nM
SK-MEL-5; [7]
  CC50: 6.17 µM
SK-MEL-5; read-out: pTGI (converted)
  TGI: 3.16 µM
ACHN [2]
  growth at 0.1 µM: 96%
T47D
  growth at 0.01 µM: 94%
ACHN [3]
  growth at 0.01 µM: 102%
K562
  growth at 100 µM: 3%
UACC-257
  growth at 100 µM: -36%
OVCAR-8
  growth at 0.01 µM: 96%
NCI-H522
  growth at 0.1 µM: 53%
MDA-MB-231
  growth at 0.1 µM: 96%
NCI-H460
  growth at 0.01 µM: 100%
HT-29 [4]; [6]
  CC50: > 100 µM
HT-29 [4]; read-out: pGI50 (converted)
  GI50: 2400 nM
HT-29 [4]; [7]
  CC50: > 100 µM
HT-29 [4]; read-out: pTGI (converted)
  TGI: 9.12 µM
CCRF-CEM; read-out: GI50
  GI50: 2000 nM
CCRF-CEM; [6]
  CC50: > 100 µM
CCRF-CEM; read-out: TGI
  TGI: 50 µM
CCRF-CEM; read-out: pGI50 (converted)
  GI50: 2000 nM
CCRF-CEM; [7]
  CC50: > 100 µM
CCRF-CEM; read-out: pTGI (converted)
  TGI: 6.03 µM
SK-OV-3; read-out: GI50
  GI50: 3.5 µM
SK-OV-3; [6]
  CC50: > 100 µM
SK-OV-3; read-out: TGI
  TGI: 57 µM
SK-OV-3; read-out: pGI50 (converted)
  GI50: 3.63 µM
SK-OV-3; [7]
  CC50: > 100 µM
SK-OV-3; read-out: pTGI (converted)
  TGI: 87.1 µM
COLO 205; read-out: GI50
  GI50: 1710 nM
COLO 205; [6]
  CC50: 6.4 µM
COLO 205; read-out: TGI
  TGI: 33.1 µM
COLO 205; read-out: pGI50 (converted)
  GI50: 1700 nM
COLO 205; [7]
  CC50: 6.46 µM
COLO 205; read-out: pTGI (converted)
  TGI: 3.31 µM
Malme-3M
  growth at 100 µM: -24%
SF-295
  growth at 1 µM: 70%
SW-620
  growth at 100 µM: 7%
MOLT-4
  growth at 0.01 µM: 99%
ACHN [5]; read-out: GI50
  GI50: 3.23 µM
ACHN [5]; [6]
  CC50: > 100 µM
ACHN [5]; read-out: TGI
  TGI: > 100 µM
ACHN [5]; read-out: pGI50 (converted)
  GI50: 3.24 µM
ACHN [5]; [7]
  CC50: > 100 µM
ACHN [5]; read-out: pTGI (converted)
  TGI: > 100 µM
DU-145
  growth at 1 µM: 93%
HOP-62
  growth at 0.1 µM: 94%
KM12; read-out: GI50
  GI50: 2020 nM
KM12; [6]
  CC50: > 100 µM
KM12; read-out: TGI
  TGI: 10.8 µM
KM12; read-out: pGI50 (converted)
  GI50: 2040 nM
KM12; [7]
  CC50: > 100 µM
KM12; read-out: pTGI (converted)
  TGI: 10.7 µM
